{
  "source": "patent US20250326771A1",
  "about": "“PIPERAZINE DERIVATIVES USEFUL IN HIV THERAPY” (VIIV HEALTHCARE COMPANY, priority 2022, published 2025)",
  "key": {"[1]": {"tested_on": "Jurkat HIV-luciferase clones", "assay": "Jurkat latency reversal assay", "assay_type": "cell-based", "details": "Homo sapiens, 48 h; Jurkat latency reversal assay potency; read-out: Jurkat pEC50 (converted)", "procedure,_shortened": "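Compounds are titrated 3-fold over 14 points from 10 μM in duplicate at 0.5% DMSO. Clones C16, 115 and N6, grown with 500 nM EFV, are co-incubated for 48 h at 37° C. Virally driven luciferase is read by luminescence, and EC50 and maximal percent activation versus vehicle come from a four-parameter model.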"}, "cIAP1-BIR3": {"target": "cIAP1-BIR3 (Homo sapiens (Human), UniProt Q13490)", "sequence (Q13490 253-363)": "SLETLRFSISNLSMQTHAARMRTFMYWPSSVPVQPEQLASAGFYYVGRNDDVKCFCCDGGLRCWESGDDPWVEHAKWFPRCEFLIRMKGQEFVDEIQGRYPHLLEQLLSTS", "assay": "BIR binding assay (FRET competition), cIAP1 BIR3", "details": "for cIAP1 BIR3 vs BIR2 separation window: fold separation (FS) for cIAP1", "procedure,_shortened": "(§1)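 His-tagged domains (50 nM cIAP1-BIR3, 325 nM cIAP2-BIR2, 325 nM cIAP1-BIR2, 100 nM XIAP-BIR3) compete with compounds for a 200 nM AlexaFluor647-labelled SMAC/DIABLO peptide in HEPES buffer, pH 7.4, for 60 min. Then 2 nM Eu-W1024 is added for 30 min. The 615/665 nm ratio is fit by four-parameter fit to give IC50.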"}, "cIAP1-BIR2": {"target": "cIAP1-BIR2 (Homo sapiens (Human), UniProt Q13490)", "sequence (Q13490 173-257)": "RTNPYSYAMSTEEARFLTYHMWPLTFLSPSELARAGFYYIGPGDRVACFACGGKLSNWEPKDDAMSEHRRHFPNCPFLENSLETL", "assay": "BIR binding assay (FRET competition), cIAP1 BIR2", "procedure,_shortened": "as §1"}, "cIAP2-BIR3": {"target": "cIAP2-BIR3 (Homo sapiens (Human), UniProt Q13489)", "sequence (Q13489 238-349)": "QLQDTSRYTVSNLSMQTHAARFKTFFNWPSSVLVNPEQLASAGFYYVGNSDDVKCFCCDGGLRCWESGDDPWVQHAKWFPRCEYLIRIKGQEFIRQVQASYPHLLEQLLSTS", "assay": "BIR binding assay (FRET competition), cIAP2 BIR3", "details": "for cIAP2 BIR3 vs BIR2 separation window: fold separation (FS) for cIAP2"}, "cIAP2-BIR2": {"target": "cIAP2-BIR2 (Homo sapiens (Human), UniProt Q13489)", "sequence (Q13489 158-242)": "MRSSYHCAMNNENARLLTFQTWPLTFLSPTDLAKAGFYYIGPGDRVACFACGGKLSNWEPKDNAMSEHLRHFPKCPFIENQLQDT", "assay": "BIR binding assay (FRET competition), cIAP2 BIR2", "procedure,_shortened": "as §1"}, "XIAP-BIR3": {"target": "XIAP-BIR3 (Homo sapiens (Human), UniProt P98170)", "sequence (P98170 241-356)": "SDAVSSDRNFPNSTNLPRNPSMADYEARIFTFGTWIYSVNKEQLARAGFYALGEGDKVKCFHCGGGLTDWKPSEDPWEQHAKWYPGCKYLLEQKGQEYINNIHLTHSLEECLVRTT", "assay": "BIR binding assay (FRET competition), XIAP BIR3", "procedure,_shortened": "as §1"}},
  "data": [
    {"smiles": "C[C@@H]1CN(CC(=O)N2CC(C)(C)c3[nH]c(=O)c(Cc4ccc(F)cc4)cc32)[C@@H](CN2CCO[C@H](COc3ccccc3-c3ccccc3OC[C@@H]3CN(C[C@H]4CN[C@H](C)CN4CC(=O)N4CC(C)(C)c5[nH]c(=O)c(Cc6ccc(F)cc6)cc54)CCO3)C2)CN1", "note": "[Example 67, 1,1′-(2,2′-((3R,3′R,6R,6′R)-(((2S,2'S)—(([1,1′-biphenyl]-2,2′-diylbis(oxy))bis(methylene))bis(morpholine-2,4-diyl))bis(methylene))bis(3-methylpiperazine-6,1-diyl))bis(acetyl))bis(6-(4-fluorobenzyl)-3,3-dimethyl-1,2,3,4-tetrahydro-5H-pyrrolo[3,2-b]pyridin-5-one)]", "values": [
      {"measurement": "EC50", "setting": "[1]", "result": "0.49 to 12.6", "unit": "nM"},
      {"measurement": "IC50", "setting": "cIAP1-BIR3", "result": "7.94 to 15.8", "unit": "nM"},
      {"measurement": "IC50", "setting": "cIAP1-BIR2", "result": "1000 to 3160", "unit": "nM"},
      {"measurement": "IC50", "setting": "cIAP2-BIR3", "result": "7.94 to 15.8", "unit": "nM"},
      {"measurement": "IC50", "setting": "cIAP2-BIR2", "result": "3160 to 10000", "unit": "nM"},
      {"measurement": "IC50", "setting": "XIAP-BIR3", "result": "7.94 to 15.8", "unit": "nM"}
    ]},
    {"smiles": "C[C@@H]1CN(CC(=O)N2CC(C)(C)c3[nH]c(=O)c(Cc4ccc(F)cc4)cc32)[C@@H](CN2CCO[C@H](COc3cc(F)cc(OC[C@@H]4CN(C[C@H]5CN[C@H](C)CN5CC(=O)N5CC(C)(C)c6[nH]c(=O)c(Cc7ccc(F)cc7)cc65)CCO4)c3)C2)CN1", "note": "[Example 73, 1,1′-(2,2′-((3R,3′R,6R,6′R)-(((2S,2'S)-(((5-fluoro-1,3-phenylene)bis(oxy))bis(methylene))bis(morpholine-2,4-diyl))bis(methylene))bis(3-methylpiperazine-6,1-diyl))bis(acetyl))bis(6-(4-fluorobenzyl)-3,3-dimethyl-1,2,3,4-tetrahydro-5H-pyrrolo[3,2-b]pyridin-5-one)]", "values": [
      {"measurement": "EC50", "setting": "[1]", "result": "0.49 to 12.6", "unit": "nM"},
      {"measurement": "IC50", "setting": "cIAP1-BIR3", "result": "7.94 to 15.8", "unit": "nM"},
      {"measurement": "cIAP1 BIR3 vs BIR2 separation window", "setting": "cIAP1-BIR3", "result": "+++ (10,000>FS>1,000)"},
      {"measurement": "IC50", "setting": "cIAP1-BIR2", "result": "3160 to 10000", "unit": "nM"},
      {"measurement": "IC50", "setting": "cIAP2-BIR3", "result": "1.38 to 7.94", "unit": "nM"},
      {"measurement": "cIAP2 BIR3 vs BIR2 separation window", "setting": "cIAP2-BIR3", "result": "+++ (10,000>FS>1,000)"},
      {"measurement": "IC50", "setting": "cIAP2-BIR2", "result": "3160 to 10000", "unit": "nM"},
      {"measurement": "IC50", "setting": "XIAP-BIR3", "result": "15.8 to 31.6", "unit": "nM"}
    ]},
    {"smiles": "C[C@@H]1CN(CC(=O)N2CC(C)(C)c3[nH]c(=O)c(Cc4ccc(F)cc4)cc32)[C@@H](CN2CCO[C@H](COc3ccc(F)c(OC[C@@H]4CN(C[C@H]5CN[C@H](C)CN5CC(=O)N5CC(C)(C)c6[nH]c(=O)c(Cc7ccc(F)cc7)cc65)CCO4)c3F)C2)CN1", "note": "[Example 74, 1,1′-(2,2′-((3R,3′R,6R,6′R)-(((2S,2'S)-(((2,4-difluoro-1,3-phenylene)bis(oxy))bis(methylene))bis(morpholine-2,4-diyl))bis(methylene))bis(3-methylpiperazine-6,1-diyl))bis(acetyl))bis(6-(4-fluorobenzyl)-3,3-dimethyl-1,2,3,4-tetrahydro-5H-pyrrolo[3,2-b]pyridin-5-one)]", "values": [
      {"measurement": "EC50", "setting": "[1]", "result": "0.49 to 12.6", "unit": "nM"},
      {"measurement": "IC50", "setting": "cIAP1-BIR3", "result": "1.38 to 7.94", "unit": "nM"},
      {"measurement": "cIAP1 BIR3 vs BIR2 separation window", "setting": "cIAP1-BIR3", "result": "+++ (10,000>FS>1,000)"},
      {"measurement": "IC50", "setting": "cIAP1-BIR2", "result": "1000 to 3160", "unit": "nM"},
      {"measurement": "IC50", "setting": "cIAP2-BIR3", "result": "1.38 to 7.94", "unit": "nM"},
      {"measurement": "cIAP2 BIR3 vs BIR2 separation window", "setting": "cIAP2-BIR3", "result": "+++ (10,000>FS>1,000)"},
      {"measurement": "IC50", "setting": "cIAP2-BIR2", "result": "1000 to 3160", "unit": "nM"},
      {"measurement": "IC50", "setting": "XIAP-BIR3", "result": "1.38 to 7.94", "unit": "nM"}
    ]},
    {"smiles": "C[C@@H]1CN(CC(=O)N2CC(C)(C)c3[nH]c(=O)c(Cc4ccc(F)cc4)cc32)[C@@H](CN2CCO[C@H](COc3cc(C#N)cc(OC[C@@H]4CN(C[C@H]5CN[C@H](C)CN5CC(=O)N5CC(C)(C)c6[nH]c(=O)c(Cc7ccc(F)cc7)cc65)CCO4)c3)C2)CN1", "note": "[Example 76, 3,5-bis(((S)-4-(((2R,5R)-1-(2-(6-(4-fluorobenzyl)-3,3-dimethyl-5-oxo-2,3,4,5-tetrahydro-1H-pyrrolo[3,2-b]pyridin-1-yl)-2-oxoethyl)-5-methylpiperazin-2-yl)methyl)morpholin-2-yl)methoxy)benzonitrile]", "values": [
      {"measurement": "EC50", "setting": "[1]", "result": "0.49 to 12.6", "unit": "nM"},
      {"measurement": "IC50", "setting": "cIAP1-BIR3", "result": "7.94 to 15.8", "unit": "nM"},
      {"measurement": "cIAP1 BIR3 vs BIR2 separation window", "setting": "cIAP1-BIR3", "result": "+++ (10,000>FS>1,000)"},
      {"measurement": "IC50", "setting": "cIAP1-BIR2", "result": "3160 to 10000", "unit": "nM"},
      {"measurement": "IC50", "setting": "cIAP2-BIR3", "result": "1.38 to 7.94", "unit": "nM"},
      {"measurement": "cIAP2 BIR3 vs BIR2 separation window", "setting": "cIAP2-BIR3", "result": "+++ (10,000>FS>1,000)"},
      {"measurement": "IC50", "setting": "cIAP2-BIR2", "result": "1000 to 3160", "unit": "nM"},
      {"measurement": "IC50", "setting": "XIAP-BIR3", "result": "15.8 to 31.6", "unit": "nM"}
    ]},
    {"smiles": "C[C@@H]1CN(CC(=O)N2CC(C)(C)c3[nH]c(=O)c(Cc4ccc(F)cc4)cc32)[C@@H](CN2CCO[C@H](COCCCCCOC[C@@H]3CN(C[C@H]4CN[C@H](C)CN4CC(=O)N4CC(C)(C)c5[nH]c(=O)c(Cc6ccc(F)cc6)cc54)CCO3)C2)CN1", "note": "[Example 82, 1,1′-(2,2′-((3R,3′R,6R,6′R)-(((2S,2'S)-((pentane-1,5-diylbis(oxy))bis(methylene))bis(morpholine-2,4-diyl))bis(methylene))bis(3-methylpiperazine-6,1-diyl))bis(acetyl))bis(6-(4-fluorobenzyl)-3,3-dimethyl-1,2,3,4-tetrahydro-5H-pyrrolo[3,2-b]pyridin-5-one)]", "values": [
      {"measurement": "EC50", "setting": "[1]", "result": "0.49 to 12.6", "unit": "nM"},
      {"measurement": "IC50", "setting": "cIAP1-BIR3", "result": "15.8 to 31.6", "unit": "nM"},
      {"measurement": "cIAP1 BIR3 vs BIR2 separation window", "setting": "cIAP1-BIR3", "result": "++++ (FS>10,000)"},
      {"measurement": "IC50", "setting": "cIAP1-BIR2", "result": "10000 to 51300", "unit": "nM"},
      {"measurement": "IC50", "setting": "cIAP2-BIR3", "result": "15.8 to 31.6", "unit": "nM"},
      {"measurement": "cIAP2 BIR3 vs BIR2 separation window", "setting": "cIAP2-BIR3", "result": "+++ (10,000>FS>1,000)"},
      {"measurement": "IC50", "setting": "cIAP2-BIR2", "result": "1000 to 3160", "unit": "nM"},
      {"measurement": "IC50", "setting": "XIAP-BIR3", "result": "31.6 to 501", "unit": "nM"}
    ]}
  ]
}
